The values that follow come from US12060360B2, “Lysyl oxidase inhibitors” (The Institute of Cancer Research: Royal Cancer Hospital, priority 2017, dated 2024).

pIC50: −log10 of the molar value.

In the test the target is T1, LOX (Mus musculus, UniProt P28301).
T1 construct: Full length LOX cDNA was then PCR cloned into pEGFP-N1 (Clonetech), or biosensor vector proGFP2-N1; expressed in transfected cells; host or cells: MDCK cells grown as cysts on Matrigel, G418-selected
T1 sequence (P28301 163-411): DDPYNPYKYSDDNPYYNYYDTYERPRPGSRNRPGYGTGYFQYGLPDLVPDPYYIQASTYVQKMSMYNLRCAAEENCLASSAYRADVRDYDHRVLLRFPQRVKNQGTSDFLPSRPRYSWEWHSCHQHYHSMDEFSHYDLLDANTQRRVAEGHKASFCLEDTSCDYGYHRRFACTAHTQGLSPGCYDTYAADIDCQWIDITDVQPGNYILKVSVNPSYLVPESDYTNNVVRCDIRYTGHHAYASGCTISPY
Briefly: LOX activity in cysts assay (LOX-roGFP2 biosensor, MDCK cysts). The format is cell-based. Conditions: MDCK cysts, roGFP2 ratio at basal surface; read-out: LOX biosensor IC50 (cyst). In short, it runs like this: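 Live MDCK cysts grown 10 days on Matrigel and expressing mouse LOX fused to the roGFP2 redox biosensor, with inhibitors added 30 min before confocal imaging. Oxidised/reduced ratio (405/488 nm excitation, 500–530 nm emission) at the basal cyst surface taken as LOX activity. DMSO defines 0% and 1 mM BAPN 100% inhibition.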

`CCOc1ccc(N2C[C@H]3CN(CCCC#N)C[C@@H]2C(C)(C)C3)cc1` [Example 42, 4-((1R,5S)-6-(4-ethoxyphenyl)-9,9-dimethyl-3,6-diazabicyclo[3.2.2]nonan-3-yl)butanenitrile]: the pIC50 was > 6.20.

The pIC50 is −log10 of the IC50, conventionally taken in molar units.
